Experimental data: PubChem BioAssay AID1919002 (Molecular Pharmacology Branch, DTP, NCI, 2023)
pIC50: −log10 of the molar value.

System: 743489-274-T-PDC complex spheroid growth
Assay: Anticancer human tumor 743489-274-T-PDC patient-derived renal cell carcinoma cell line growth inhibition [AhR]
Details: for pIC50: curve of first compound; for viability, T/C: stronger effect = lower value; active means viability on the fitted dose curve at most 10% of control; inactive means the rest
Excerpt: Multicellular complex tumor spheroid response to aryl hydrocarbon receptor antagonists in combination with a variety of drugs and investigational agents in selected tumor cell lines
The current study was undertaken to assess response to aryl hydrocarbon receptor antagonists in combination with standard-of-care drugs and investigational agents in solid tumor complex spheroid models. Complex spheroids include a stromal component modeled by human endothelial cells (HUVEC) and fibroblasts modeled by human mesenchymal stem cells (MSCs). The concentration ranges selected for each drug and investigational agent were based upon clinically achievable concentrations if the clinical Cmax of the agent was known.
Compounds. The drugs and investigational agents: BAY 2416964 (NSC825713), GNF351 (NSC835774), CH-223191 (NSC835775), CPI-455 (NSC825282), aza-TdCyd (NSC777586), decitabine (NSC127716), belinostat (NSC758774), entinostat (NSC756642), pevonedistat (NSC761192), tazemetostat (NSC777109), talazoparib (NSC765396), olaparib (NSC753686), selinexor (NSC780203), nedisertib (M3814, NSC802822), bortezomib (NSC756655), venetoclax (NSC766270), doxorubicin (NSC123127), elimusertib (BAY189344, NSC800525), ceralasertib (AZD6738, NSC777638), TAK-243 (NSC785004), alisertib (NSC759677), etoposide (NSC141540), topotecan (NSC609699), eribulin (NSC707389), gemcitabine (NSC613327), carboplatin (NSC241240), cisplatin (NSC119875), and SN-38 (NSC673596) were obtained from the National Cancer Institute (NCI) Developmental Therapeutics Program Chemical Repository (32). The FDA-approved anticancer drug set is available from the Developmental Therapeutics Program at https://dtp.cancer.gov/organization/dscb/obtaining/available plates.htm. […] The stock solutions were prepared in dimethyl sulfoxide (DMSO, Sigma-Aldrich, St. Louis, MO, cat. D2650), except for the platinum compounds which were prepared in saline (Quality Biological, Gaithersburg, MD, cat. 114-055-101), at 800-fold the tested concentration and stored at -70 degrees C prior to their use. All drugs and investigational agents were tested over a range starting from a high concentration at or near the clinical Cmax and decreasing in half-log increments. If the clinical Cmax for an agent had not been determined, the highest concentration tested was 10 microM (Table 1).
Cell Culture. All cells were maintained in an incubator at 37 degrees C and 5% CO2 with 95% humidity. The PDC lines were cultured according to standard operating procedures established by the NCI PDMR (https://pdmr.cancer.gov). Briefly, all PDCs were thawed and cultured in Matrigel-coated flasks prepared with a working solution of 1X Ham's F-12 nutrient mix, without supplementation (Invitrogen, Waltham, MA, cat. 11765054), 100 U/mL penicillin-streptomycin (Invitrogen, cat. 15140122), and 2.5% Matrigel (Corning Inc., Corning, NY, cat. 354248) for the first three passages. All PDCs were cultured in complete DMEM/F-12 media containing advanced DMEM/F-12 (Invitrogen, cat. 12634028), 4.9% defined fetal bovine serum, heat inactivated (HyClone Laboratories Inc., Logan, UT, cat. SH30070.03HI), 389 ng/mL hydrocortisone (Sigma-Aldrich, cat. H4001), 9.7 ng/mL human EGF recombinant protein (Invitrogen, cat. PHG0313), 23.4 microg/mL adenine (Sigma-Aldrich, cat. A2786), 97.3 U/mL penicillin-streptomycin (Invitrogen, cat. 15140122), 1.9 mM L-glutamine (Invitrogen, cat. 25030081), and 9.7 microM Y-27632 dihydrochloride (Tocris Bioscience, Bristol, United Kingdom, cat. 1254). The PDCs were cultured in complete DMEM/F12 media without 10 microM Y-27632 dihydrochloride for at least two passages prior to the screen. The established cell lines NCI-H1341 and […] were cultured in DMEM/F-12, HEPES (Invitrogen, cat. 11330032), 5% defined fetal bovine serum (HyClone Laboratories Inc., cat. SH30070.03), ITS premix universal culture supplement [insulin (5 microg/mL), transferrin (5 microg/mL), and selenious acid (5 ng/mL)] […]

[1] = second compound 0.1 µM, first compound 0.0316 µM
[2] = second compound 0.1 µM, first compound 0.1 µM
[3] = second compound 0.1 µM, first compound 0.316 µM
[4] = second compound 0.1 µM, first compound 1 µM
[5] = second compound 0.1 µM, first compound 3.16 µM
[6] = second compound 0.1 µM, first compound 10 µM
[7] = second compound 0.316 µM, first compound 0.0316 µM
[8] = second compound 0.316 µM, first compound 0.1 µM
[9] = second compound 0.316 µM, first compound 0.316 µM
[10] = second compound 0.316 µM, first compound 1 µM
[11] = second compound 0.316 µM, first compound 3.16 µM
[12] = second compound 0.316 µM, first compound 10 µM
[13] = second compound 1 µM, first compound 0.0316 µM
[14] = second compound 1 µM, first compound 0.1 µM
[15] = second compound 1 µM, first compound 0.316 µM
[16] = second compound 1 µM, first compound 1 µM
[17] = second compound 1 µM, first compound 3.16 µM
[18] = second compound 1 µM, first compound 10 µM
[19] = second compound 3.16 µM, first compound 0.0316 µM
[20] = second compound 3.16 µM, first compound 0.1 µM
[21] = second compound 3.16 µM, first compound 0.316 µM
[22] = second compound 3.16 µM, first compound 1 µM
[23] = second compound 3.16 µM, first compound 3.16 µM
[24] = second compound 3.16 µM, first compound 10 µM
[25] = second compound 10 µM, first compound 0.0316 µM
[26] = second compound 10 µM, first compound 0.1 µM
[27] = second compound 10 µM, first compound 0.316 µM
[28] = second compound 10 µM, first compound 1 µM
[29] = second compound 10 µM, first compound 3.16 µM
[30] = second compound 10 µM, first compound 10 µM
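Further: spheroids exposed to agents for 7 days before readout.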
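Wherever viability, T/C is given: 100% = DMSO vehicle control wells.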

Nc1ccccc1NC(=O)c1ccc(CNC(=O)OCc2cccnc2)cc1 + Cc1ccccc1N=Nc1ccc(NC(=O)c2ccnn2C)c(C)c1
5.58: pIC50 (second compound 0.316 µM) | pIC50 (second compound 3.16 µM)
inactive: viability, T/C [1] 101% | viability, T/C [2] 96.6% | viability, T/C [3] 95.9% | viability, T/C [4] 80.2% | viability, T/C [5] 63% | viability, T/C [6] 25.4% | viability, T/C [7] 99.9% | viability, T/C [8] 99.7% | viability, T/C [9] 84% | viability, T/C [10] 79.7% | viability, T/C [11] 42.7% | viability, T/C [12] 23.8% | viability, T/C [13] 89.8% | viability, T/C [14] 95% | viability, T/C [15] 88.2% | viability, T/C [16] 74.3% | viability, T/C [17] 54.7% | viability, T/C [18] 24.5% | viability, T/C [19] 93.3% | viability, T/C [20] 98% | viability, T/C [21] 88.3% | viability, T/C [22] 70% | viability, T/C [23] 47% | viability, T/C [24] 28.5% | viability, T/C [25] 86.9% | viability, T/C [26] 95.9% | viability, T/C [27] 88.4% | viability, T/C [28] 66.2% | viability, T/C [29] 44.4% | viability, T/C [30] 28.6%
5.34: pIC50 (second compound 0.1 µM)
5.44: pIC50 (second compound 1 µM)
5.65: pIC50 (second compound 10 µM)

CC1(C)CCC(CN2CCN(c3ccc(C(=O)NS(=O)(=O)c4ccc(NCC5CCOCC5)c([N+](=O)[O-])c4)c(Oc4cnc5[nH]ccc5c4)c3)CC2)=C(c2ccc(Cl)cc2)C1 + Cc1cncc(-c2nc(NCCc3c[nH]c4ccccc34)c3ncn(C(C)C)c3n2)c1
inactive: viability, T/C [1] 103% | viability, T/C [2] 105% | viability, T/C [3] 107% | viability, T/C [4] 106% | viability, T/C [5] 99.5% | viability, T/C [6] 113% | viability, T/C [7] 98.5% | viability, T/C [8] 110% | viability, T/C [9] 106% | viability, T/C [10] 104% | viability, T/C [11] 104% | viability, T/C [12] 123% | viability, T/C [13] 99.4% | viability, T/C [14] 108% | viability, T/C [15] 103% | viability, T/C [16] 114% | viability, T/C [17] 133% | viability, T/C [18] 128% | viability, T/C [19] 116% | viability, T/C [20] 123% | viability, T/C [21] 119% | viability, T/C [22] 135% | viability, T/C [23] 145% | viability, T/C [24] 138% | viability, T/C [25] 106% | viability, T/C [26] 111% | viability, T/C [27] 112% | viability, T/C [28] 133% | viability, T/C [29] 151% | viability, T/C [30] 227%
< 5.00: pIC50 (second compound 0.1 µM) | pIC50 (second compound 0.316 µM) | pIC50 (second compound 1 µM) | pIC50 (second compound 3.16 µM) | pIC50 (second compound 10 µM)

CC(C)CC(NC(=O)C(Cc1ccccc1)NC(=O)c1cnccn1)B(O)O (stereo not given) + Cc1ccccc1N=Nc1ccc(NC(=O)c2ccnn2C)c(C)c1
active: viability, T/C (second compound 0.1 µM, first compound 0.0949 µM) 13.8% | viability, T/C (second compound 0.1 µM, first compound 0.3 µM) 4.06% | viability, T/C (second compound 0.316 µM, first compound 0.0949 µM) 16.2% | viability, T/C (second compound 0.316 µM, first compound 0.3 µM) 2.22% | viability, T/C (second compound 3.16 µM, first compound 0.0949 µM) 17.3% | viability, T/C (second compound 3.16 µM, first compound 0.3 µM) 2.43% | viability, T/C (second compound 10 µM, first compound 0.0949 µM) 10.4% | viability, T/C (second compound 10 µM, first compound 0.3 µM) 4.58%
7.66: pIC50 (second compound 0.1 µM)
7.67: pIC50 (second compound 10 µM)
7.55: pIC50 (second compound 1 µM)
7.65: pIC50 (second compound 3.16 µM)
inactive: viability, T/C (second compound 0.1 µM, first compound 0.000949 µM) 99.1% | viability, T/C (second compound 0.1 µM, first compound 0.003 µM) 115% | viability, T/C (second compound 0.1 µM, first compound 0.00949 µM) 97.4% | viability, T/C (second compound 0.1 µM, first compound 0.03 µM) 31.5% | viability, T/C (second compound 0.316 µM, first compound 0.000949 µM) 83.8% | viability, T/C (second compound 0.316 µM, first compound 0.003 µM) 98.5% | viability, T/C (second compound 0.316 µM, first compound 0.00949 µM) 100% | viability, T/C (second compound 0.316 µM, first compound 0.03 µM) 41.1% | viability, T/C (second compound 1 µM, first compound 0.000949 µM) 88.9% | viability, T/C (second compound 1 µM, first compound 0.003 µM) 111% | viability, T/C (second compound 1 µM, first compound 0.00949 µM) 113% | viability, T/C (second compound 1 µM, first compound 0.03 µM) 46.9% | viability, T/C (second compound 1 µM, first compound 0.0949 µM) 15.2% | viability, T/C (second compound 1 µM, first compound 0.3 µM) 5% | viability, T/C (second compound 3.16 µM, first compound 0.000949 µM) 89.1% | viability, T/C (second compound 3.16 µM, first compound 0.003 µM) 94.8% | viability, T/C (second compound 3.16 µM, first compound 0.00949 µM) 94.2% | viability, T/C (second compound 3.16 µM, first compound 0.03 µM) 34.9% | viability, T/C (second compound 10 µM, first compound 0.000949 µM) 77.4% | viability, T/C (second compound 10 µM, first compound 0.003 µM) 97.6% | viability, T/C (second compound 10 µM, first compound 0.00949 µM) 89.4% | viability, T/C (second compound 10 µM, first compound 0.03 µM) 33.6%
7.61: pIC50 (second compound 0.316 µM)
